Measured values from patent publication US20180010188A1, “METHOD FOR DETECTING NONSENSE-MEDIATED RNA DECAY” (The Regents of the University of California, priority 2016, published 2018).
Entries after “also recorded” stand apart in the source; their conditions may differ.

Tests used:
[1] = test system: NMD and non-NMD isoforms of Srsf11, Ptbp2, Tra2b, Hnrnpl and Psd-95 (cellular NMD activity); experiment: RT-qPCR of endogenous NMD and non-NMD isoforms to monitor cellular NMD activity; assay type: cell-based, mouse
Source text: In our method, we measure the individual abundance of NMD-sensitive isoforms and that of their non-NMD counterparts via quantitative real-time PCR (qPCR). The NMD isoforms are first examined for differential expression between a treatment and a control condition. An increase in a NMD isoform may be due to NMD inhibition, transcriptional activation or a change in alternative splicing favoring the NMD isoform. These three scenarios can be distinguished by examining the expression of the non-NMD counterparts. Genuine NMD regulation, transcriptional activation and alternative splicing regulation would lead to no change, upregulation and down-regulation of the NMD-insensitive isoforms, respectively (FIG. 6A).
One technical difficulty of our method is designing RT-qPCR primers specific to the cassette exon-skipping isoform, whose entire sequence is contained in the inclusion isoform. To specifically detect an inclusion isoform, we designed a primer entirely annealing to the cassette exon (exon B in FIG. 1A). For the exclusion isoform, junction primers annealing to the exon-skipping junction appear to be the only choices. This can be either a reverse primer (FIG. 1A) with its 5′ portion matching the downstream constitutive exon (exon C) and its 3′ portion matching the upstream constitutive exon (exon A) or a forward primer (not shown) with its 5′ and 3′ portions matching the upstream and downstream exons, respectively. The challenge is herein illustrated with reverse primers but also applies to forward primers. Many exon-skipping junction primers are able to amplify the inclusion isoforms (FIGS. 7A-D). The longer the 3′ portion of the junction primer annealing to the upstream constitutive exon, the easier the primer amplifies the inclusion transcripts (FIG. 7B). Some exon-skipping junction primers with 3′ portions as short as six nucleotides, as we've observed, can still anneal to and detect the inclusion isoform at 55-60° C., albeit at a lower efficiency than its detection of the exclusion isoform. On the other hand, a longer 5′ portion and a shorter 3′ portion increase the possibility of the primer annealing to the exon B-exon C junction because of the sequence similarity around 5′ splice sites (FIGS. 7C-D). We therefore had to identify NMD-associated cassette exons containing a 3′ end unlike that of its upstream exon. We then screened multiple exon-skipping junction primers for one that amplified only the exclusion isoform and not the inclusion isoform. All primer pairs were tested and confirmed for their specificity, RT-qPCR efficiency and linear dynamic ranges (FIG. 10). Finally, two stably expressed housekeeping genes, Gapdh and Sdha, were used as internal controls for normalization by geometric averaging (Vandesompele et al., 2002. Genome Biol 3: RESEARCH0034).
Because our method can be used on its own can to infer NMD regulation with a low false positive rate, one of its applications is unbiased screening for changes in cellular NMD activity. We screened a small panel of widely used pharmacological inhibitors for their effects on NMD. The expression of both the NMD and non-NMD isoforms of Ptbp2, Srsf11, Tra2b, Hnrnpl and Psd-95 were simultaneously measured before and after drug treatment. When the levels of all of the NMD isoforms were altered by a chemical in the same direction, the expression of the NMD and non-NMD isoforms under the treatment and control conditions was then subjected to ANOVA analysis to determine differential regulation of the two isoforms. We were interested in drugs that affected the NMD isoforms across the board and more strongly than the non-NMD counterparts. With this criterion, we identified thapsigargin as having potent activity in blocking cellular NMD.
Neuro-2a (N2a) cells were maintained in N2a complete media consisting of L-glutamine-free Dulbecco's modified Eagle's medium (DMEM), 10% FBS and 1× GlutaMAX at 37° C. […]

[2] = test system: immediate early genes c-fos, c-Jun and Pip92; experiment: RT-qPCR of immediate early genes; assay type: cell-based, mouse
Source text: We then examined whether an increase in intracellular Ca^2+ is sufficient to inhibit NMD. We applied a wide dose range of ouabain, a cardiac glycoside used by Nickless et al., and measured the abundance of both NMD and non-NMD isoforms at various time-points. […] To further test whether increased intracellular Ca^2+ was sufficient to inhibit NMD, we treated the cells with ionomycin, a Ca^2+ ionophore, as another method of raising the cytoplasmic Ca^2+ concentration.
Neuro-2a (N2a) cells were maintained in N2a complete media consisting of L-glutamine-free Dulbecco's modified Eagle's medium (DMEM), 10% FBS and 1× GlutaMAX at 37° C. Thapsigargin (VWR, cat. no. 89161-410), ionomycin (Fisher Scientific, cat. no. AG-CN2-0416-M001) and ouabain octahydrate (Fisher Scientific, cat. no. 80055-364) were dissolved in DMSO and stored at −80° C. For the application of these chemicals, 750,000 cells were plated on 35 mm BioLite TC plates and incubated with 2 ml of N2a complete media overnight before treatment with the drugs at the indicated concentrations. […]
Trizol (Life Technologies, cat. no. 15596-018) was directly added to the cells or mouse brain tissues to extract total RNA following the Trizol Reagent standard protocol. […] RNA concentrations were measured using a Nanodrop 2000c (Thermo Fisher). […] Relative expression (fold changes) was calculated using the ΔΔCt method. […]

SMILES	levels of the NMD isoforms ([1]; 1 to 100 μM)	expression of immediately early genes c-Jun and Pip92 ([2]; ionomycin treatment)	NMD isoforms at high concentration ([1]; 200 or 400 μM)	changes in cellular NMD activity ([1]; wide dose range, various time-points, N2a cells)	immediate early genes c-fos and Pip92 ([2]; 200 or 400 μM, N2a cells)
C[C@H](CCC(=O)O)C[C@H](C)C[C@H](C)C(=O)/C=C(\O)[C@H](C)C[C@H](C)C/C=C/[C@@H](C)[C@@H](O)[C@@H](C)[C@@H](O)C[C@@H]1CC[C@@](C)([C@H]2CC[C@@](C)([C@@H](C)O)O2)O1 [ionomycin]	did not alter	increased expression			
C[C@@H]1O[C@@H](O[C@H]2C[C@@H](O)[C@]3(CO)[C@H]4[C@H](O)C[C@]5(C)[C@@H](C6=CC(=O)OC6)CC[C@]5(O)[C@@H]4CC[C@]3(O)C2)[C@H](O)[C@H](O)[C@H]1O [ouabain]			not substantially enhanced	only minimal changes; also recorded: did not unequivocally affect NMD activity	clearly stimulated; also recorded: clearly induced
